Assay results from patent US8980823B2, “Formulations of Factor VIIa inhibitors and utility” (priority 2012, dated 2015).
“Also recorded” adds a separate entry of the source.

System: Laser-induced CNV
Experiment: Laser-induced Choroidal Neovascularization (CNV) model
Assay type: in vivo, brown Norway rats
Settings: single i-v injection on D0, evaluated D10; r-TFPI 0.2 ug; VIIa-i (Compound A-NO NP) 5.08 ug
Method: For Choroidal Neovascularization (CNV) induction in rats, brown Norway rats were anesthetized and pupils dilated. Argon red laser photocoagulation (50-um spot size, 0.05 sec duration) was used to generate 4 laser spots for each eye surrounding the optic nerve. A bubble forms at the laser spot indicating rupture of Bruch's membrane. The laser spots were evaluated for the presence of CNV on day 10 after laser treatment using confocal microscopy. Administration of test compounds: Immediately after CNV induction, test compounds were given once by intravitreal injection, i-v (VIIa-i versus r-TFPI). For characterization of efficacy in preventing laser-induced CNV in the eyes of rats, the incidence of CNV-positive or CNV-negative spots was determined by confocal microscopy. Rats were perfused with a FITC-dextran solution just prior to sacrifice. After the eyes were excised and choroidal flat mounts prepared, the mounts were stained with a mAb against mouse or rat elastin and then with CY3-conjugated secondary antibody. The prominent neovascular growth stains green whereas the underlying elastin in the Bruch's membrane stains red within the laser spot. The inhibition of new vessel growth is indicated by the absence of vessels with a green stain, and the size of the CNV is measured using Image Pro plus Software. […] Animals were sacrificed on D10, and CNV evaluated as described in methods.

“r-TFPI: recombinant tissue factor pathway inhibitor” was tested, and the “inhibition of laser-induced CNV” value was “highly effective in inhibiting laser-induced CNV; also recorded: significant reduction in neovascular growth”.
